The results in this text go back to patent publication US10738041B2, “Ferroportin inhibitors” (Vifor (International) AG, priority 2015, dated 2020).

The target in experiment [1] is T1, human Fpn-GFP fusion (Homo sapiens, UniProt Q9NP59).
T1 construct: expressed in transfected cells; host or cells: HEK-293 cell line #354 (derivative of HEK-293 Tet-ON Advanced, Clontech)
T1 sequence (Q9NP59 1-571): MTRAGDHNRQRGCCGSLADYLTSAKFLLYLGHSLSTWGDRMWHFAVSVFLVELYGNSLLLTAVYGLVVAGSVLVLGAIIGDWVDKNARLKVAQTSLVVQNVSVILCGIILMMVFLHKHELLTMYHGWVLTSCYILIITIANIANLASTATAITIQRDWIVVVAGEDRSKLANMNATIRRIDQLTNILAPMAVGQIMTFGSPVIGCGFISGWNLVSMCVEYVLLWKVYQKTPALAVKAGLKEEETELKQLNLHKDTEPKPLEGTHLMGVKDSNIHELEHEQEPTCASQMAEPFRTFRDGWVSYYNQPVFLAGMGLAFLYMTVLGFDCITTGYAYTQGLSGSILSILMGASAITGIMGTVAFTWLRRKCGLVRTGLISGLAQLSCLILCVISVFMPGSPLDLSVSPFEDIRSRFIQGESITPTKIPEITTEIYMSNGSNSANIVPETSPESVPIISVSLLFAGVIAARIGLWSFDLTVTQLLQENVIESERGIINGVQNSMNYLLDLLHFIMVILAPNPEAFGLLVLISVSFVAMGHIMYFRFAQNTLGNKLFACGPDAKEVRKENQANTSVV
Nature of the experiment: Ferroportin Internalization and Degradation Assay (FACS). In kind it is cell-based. To be noted: average of multiple measurements, Fpn-GFP MFI, HEK-293 cell line #354, FACS. As for the experimental part: Growing HEK-293 #354 cells in doxycycline containing media induced expression of human Fpn-GFP fusion protein on the cell surface. […] Small molecular weight Fpn inhibitor compounds were tested for dose-dependent effects on the Fpn-GFP mean fluorescence intensity (MFI) on HEK-293 cell line #354, as described below. HEK #354 cells were harvested from ca. 80% confluent cultures, seeded at 0.6×10^6 (cells/ml in DMEM/F12 GlutaMAX™ medium (Invitrogen, Cat. 31331-028) containing 10% FBS (Clontech, Cat. 631106), 1% Penicillin-Streptomycin (Invitrogen, Cat. 15140-122), 200 μg/ml Hygromycin B (Invitrogen, Cat. 10687-010), Blasticidin 5 μg/ml, (Invitrogen, Cat. R210-01), 4 μg/ml doxycycline (Clontech, Cat. 631311), 50 μl per well of 384 well plates (Greiner; Cat. 781091) and grown at 37° C. with 5% CQ. After overnight incubation, 10 μl/well of dilution series of the test compounds were added in quadruplicates and plates were further incubated overnight at 37° C. with 5% CO2. Cells were washed once with FACS buffer (PBS containing 1% FBS, 2 mM EDTA and 0.05% NaN3), harvested in FACS buffer with 0.5 μg/ml propidium iodide (Sigma, Cat. P4864) and analyzed in a flow cytometer (CANTO™ II, BD Biosciences) equipped with high throughput sampler. Live HEK #354 cells were gated as propidium iodide negative population and analyzed for expression of Fpn-GFP.

Experiment [2] has as its target T1, human Fpn-GFP fusion. Nature of the experiment: Inhibition of ferroportin mediated iron export activity in an iron response assay (BLAzer). The experiment is classed as cell-based. The essentials: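 HEK-293 Tet-ON line with doxycycline-inducible Fpn-GFP and a ferritin promoter/IRE-BLA reporter was treated overnight at 37° C with compound dilutions in quadruplicate.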

The target in experiment [3] is T2, human Fpn (Homo sapiens, UniProt Q9NP59).
T2 construct: FLAG (C); made in house; host or cells: Pichia pastoris
T2 sequence (Q9NP59 1-571): T1 sequence (Q9NP59 1-571)
Put plainly: Biophysical Ferroportin-Hepcidin Binding Assay (fluorescence polarization). The essentials:
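Purified human Fpn (C-terminal FLAG tag, expressed in Pichia pastoris) at 1 μM final was incubated with 20 nM TMR-hepcidin and serially diluted compounds in duplicate for 90 min at room temperature. Binding inhibition was read as a dose-dependent fall in FP (mP), calculated from parallel and perpendicular fluorescence.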
In general terms: In fluorescence polarisation assays a small probe gives low polarisation when free and higher when bound to something large.

The mark [4] stands for this setting: average of multiple measurements, HEK-293 cell line #354, read-out: BLAzer EC50.
Where [5] appears, read: average of multiple measurements, 1 μM human Fpn, 20 nM TMR-hepcidin, read-out: FP IC50.

Where two headings read alike, the source gives them in different places.

One may read the EC50 as the concentration that produces a half-maximal response. One may read the IC50 as the concentration that gives 50% inhibition.

Turning to `O=C(NCc1ncccc1F)c1coc(C2CN(CCc3nc4c(F)cccc4[nH]3)C2)n1` [Example 239], the EC50 stood at 320 nM in experiment [1] and 880 nM in experiment [2] (setting [4]). For the same compound, the IC50 in experiment [3] (setting [5]) came out at 38 nM.
The matching figures for `O=C(NCc1ncccc1F)c1csc(CCNCCc2nc3c(F)cccc3[nH]2)n1` [Example 243]: 510 nM, 1400 nM and 34 nM.
For the compound `O=C(NCc1ncccc1F)c1coc(CCNCCc2nc3c(F)cc(F)cc3[nH]2)n1` [Example 249], the EC50 stood at 950 nM in experiment [1] and 1550 nM in experiment [2] (setting [4]). In addition, in experiment [3] (setting [5]), the IC50 worked out at 44 nM.
The matching figures for `O=C(NCc1ncccc1F)c1coc(CCNCCc2nc3cc(F)ccc3[nH]2)n1` [Example 250]: 600 nM, 460 nM and 19 nM.
Turning to `CC[C@H](C)[C@@H]1NC(=O)[C@@H](NC(=O)[C@@H](NC(=O)[C@@H]2CCCN2C(=O)[C@H](Cc2ccccc2)NC(=O)[C@H](Cc2c[nH]cn2)NC(=O)[C@@H](NC(=O)[C@@H](N)CC(=O)O)[C@@H](C)O)[C@@H](C)CC)CSSC[C@@H](C(=O)N[C@@H](CCCCN)C(=O)N[C@H](C(=O)O)[C@@H](C)O)NC(=O)[C@@H]2CSSC[C@@H]3NC(=O)[C@@H]4CSSC[C@H](NC(=O)[C@H](Cc5ccccc5)NC1=O)C(=O)N[C@@H](CSSC[C@H](NC(=O)[C@H](CCCCN)NC(=O)[C@H](CO)NC(=O)[C@H](CCCNC(=N)N)NC(=O)[C@H](Cc1c[nH]cn1)NC3=O)C(=O)NCC(=O)N[C@@H](CCSC)C(=O)N2)C(=O)NCC(=O)N4` [hepcidin, reference compound], in experiment [1] (read-out: EC50 ferroportin internalization and degradation), the DC50 turned out to be 4 ± 2 nM. In addition, in experiment [2], it took 96 ± 63 nM to reach a half-maximal effect (EC50). Besides, the IC50 in experiment [3] is 370 ± 67 nM.
